How the values were obtained:
[1] = Storage stability of crystalline Form 1, XRPD spectrum before and after storage; format: physicochemical
Procedure: X-Ray Powder Diffraction patterns were collected on a Bruker D8 diffractometer using Cu Kα radiation (40 kV, 40 mA), θ-2θ goniometer, and divergence of V4 and receiving slits, a Ge monochromator and a Lynxeye detector. Samples were run under ambient conditions as flat plate specimens. The sample was gently packed into a cavity cut into polished, zero-background (510) silicon wafer. The parameters of the data collection are: • Angular range: 2 to 42°2θ • Step size: 0.05°2θ • Collection time: 0.5 s/step
A sample of the steroid-like compound in crystalline Form 1 was stored for 7 days at 40° C. and 75% relative humidity. After that time an XRPD spectrum was obtained and compared to the XRPD spectrum of the sample before the storage at the elevated temperature and humidity. […] Similarly, another sample of the steroid-like compound in crystalline Form 1 was stored for 1 year at room temperature (21° C. and uncontrolled relative humidity).

[2] = Conversion of substantially amorphous material to crystalline Form 1 at elevated temperature and/or humidity; format: physicochemical
From the text: In certain embodiments, a substantially amorphous form of the steroid-like compound contemplated for use herein can be converted into crystalline Form 1 by subjecting said amorphous material to elevated temperatures and/or elevated humidity sufficient to promote the desired conversion.
As used herein, “substantial portion thereof” refers to the major portion of the sample in question, i.e., greater than 50% of the sample, undergoes conversion from the amorphous form thereof to crystalline Form 1; in some embodiments, greater than 60% of the sample undergoes conversion from the amorphous form thereof to crystalline Form 1; in some embodiments, greater than 70% of the sample undergoes conversion from the amorphous form thereof to crystalline Form 1; in some embodiments, greater than 80% of the sample undergoes conversion from the amorphous form thereof to crystalline Form 1; in some embodiments, greater than 90% of the sample undergoes conversion from the amorphous form thereof to crystalline Form 1.

Structure (SMILES) | change in the XRPD spectrum after storage ([1]; stored for 1 year at room temperature (21° C. and uncontrolled relative humidity)) | change in the XRPD spectrum after storage ([1]; stored for 7 days at 40° C. and 75% relative humidity) | solid form conversion on exposure ([2]; 75% relative humidity at about 40° C. for about 1 week) | solid form conversion on exposure ([2]; 97% relative humidity at room temperature (about 25° C.) for about 2 weeks) | solid form conversion on exposure ([2]; temperature higher than about 110° C. for at least about 1 hour)
C[C@]12CCC(=O)C=C1CC[C@@H]1[C@@H]2[C@@H](O)C[C@@]2(C)[C@H]1CC[C@]2(OC(=O)c1ccccc1)C(=O)CO [crystalline Form 1] | no change | No noticeable change | – | – | –
C[C@]12CCC(=O)C=C1CC[C@@H]1[C@@H]2[C@@H](O)C[C@@]2(C)[C@H]1CC[C@]2(OC(=O)c1ccccc1)C(=O)CO [substantially amorphous form] | – | – | conversion of a substantial portion thereof to crystalline Form 1 | conversion of a substantial portion thereof to crystalline Form 1 | conversion of a substantial portion thereof to crystalline Form 1
